This passage reports EC50 results from patent US12012417B2, “N-substituted tetrahydrothienopyridine derivatives and uses thereof” (NOVARTIS AG, priority 2018, dated 2024).

For test [1], the system named is Dengue 1 virus MY97-10245. The test is described as follows: High-content imaging cell-based flavivirus immunodetection (HCl-CFI) assay, Dengue 1. To be noted: Dengue virus, A549, 48 h, read-out: Dengue 1 virus MY97-10245 in A549 using HCl [Inhibitor/IC50] Qualified AC50.
The subject of test [2] is Dengue 2 virus MY97-10340. As to the kind of experiment: High-content imaging cell-based flavivirus immunodetection (HCl-CFI) assay, Dengue 2. To be noted: Dengue virus, A549, 48 h, read-out: Dengue 2 virus MY97-10340 in A549 using HCl [Inhibitor/IC50] Qualified AC50, A549 cells, MOI 0.3, 48 h, viral E protein expression. On the procedure:
High-Content Imaging Cell-Based Flavivirus Immunodetection (HCl-CFI) Assay
A549 cells (7×10^3 cells per well) in a 384-well plate were infected with the DENV-2 (MY97-10340) strain at an MOI of 0.3. The cells were then treated with 3-fold, 10-point serial dilutions of test compound. After 48 h, the cells were fixed with paraformadehyde, and the viral E protein detected with 4G2 antibody labeled with Dylight™ 488 (GenScript). Cell nuclei were stained with Draq5 (Pierce/Thermo), and images were taken on the Opera imaging system (Perkin Elmer). A dose-response curve was plotted to calculate the effective concentration of compound needed to reduce expression of E protein by 50% (EC50) using GraphPad Prism.
The resulted EC50 values are summarized in Table 1 below: ±≥1 μM; 1 μM>++≥0.1 μM; 0.1 μm>+++

Test [3] has as its system Dengue 3 virus MY05-34640-WT-C6/36. As to the kind of experiment: High-content imaging cell-based flavivirus immunodetection (HCl-CFI) assay, Dengue 3. To be noted: Dengue virus, A549, 48 h, read-out: Dengue 3 virus MY05-34640-WT-C6/36 in A549 using HCl [Inhibitor/IC50] Qualified AC50.
Test [4] relates to Dengue 4 virus MY01-22713. The test is described as follows: High-content imaging cell-based flavivirus immunodetection (HCl-CFI) assay, Dengue 4. To be noted: Dengue virus, A549, 48 h, read-out: Dengue 4 virus MY01-22713 in A549 using HCl [Inhibitor/IC50] Qualified AC50, A549 cells, 48 h, viral E protein expression.

The structures appear in SMILES notation.

Regarding `N#Cc1c(NC(=O)Cc2ccc(S(N)(=O)=O)cc2)sc2c1CCN(Cc1ccccc1F)C2` [Example 99, N-(3-cyano-6-(2-fluorobenzyl)-4,5,6,7-tetrahydrothieno[2,3-c]pyridin-2-yl)-2-(4-sulfamoylphenyl)acetamide], the EC50 in test [1] was > 1 µM; in test [2], 0.1 to 1 µM; in test [3] it was 0.1 to 1 µM; in test [4], 0.1 to 1 µM.

In the case of `Cc1cccc(CN2CCc3c(sc(NC(=O)Cc4ccc(S(N)(=O)=O)cc4)c3C#N)C2)c1F` [Example 115, N-(3-cyano-6-(2-fluoro-3-methylbenzyl)-4,5,6,7-tetrahydrothieno[2,3-c]pyridin-2-yl)-2-(4-sulfamoylphenyl)acetamide], the EC50 in test [1] was 0.1 to 1 µM; in test [2] it was < 0.1 µM; in test [3] it was < 0.1 µM; in test [4], < 0.1 µM.

On to `CC1Cc2sc(NC(=O)Cc3ccc(S(N)(=O)=O)cc3)c(C#N)c2CN1CC1CCCCC1` (stereo not drawn) [Example 62, N-(3-cyano-5-(cyclohexylmethyl)-6-methyl-4,5,6,7-tetrahydrothieno[3,2-c]pyridin-2-yl)-2-(4-sulfamoylphenyl)acetamide], for which the EC50 in test [1] was 0.1 to 1 µM; in test [2] it was < 0.1 µM; in test [3], < 0.1 µM; in test [4], < 0.1 µM.

Consider `N#Cc1c(NC(=O)Cc2ccc3c(c2)CNC3)sc2c1CN(Cc1cccc(F)c1)CC2` [Example 26, N-(3-cyano-5-(3-fluorobenzyl)-4,5,6,7-tetrahydrothieno[3,2-c]pyridin-2-yl)-2-(isoindolin-5-yl)acetamide], for which the EC50 in test [1], in test [2], in test [3] and in test [4] was > 1 µM throughout.

On to `CC1Cc2sc(NC(=O)Cc3ccc(S(N)(=O)=O)cc3)c(C#N)c2CN1CC1CC(F)(F)C1` (stereo not drawn) [Example 56, N-(3-cyano-5-((3,3-difluorocyclobutyl)methyl)-6-methyl-4,5,6,7-tetrahydrothieno[3,2-c]pyridin-2-yl)-2-(4-sulfamoylphenyl)acetamide], for which the EC50 in test [1] was > 1 µM; in test [2], 0.1 to 1 µM; in test [3], 0.1 to 1 µM; in test [4], < 0.1 µM.

As for `CCOc1cc(CC(=O)Nc2sc3c(c2C#N)CN(Cc2cccc(F)c2)CC3)ccc1C(N)=O` [Example 89, 4-(2-((3-cyano-5-(3-fluorobenzyl)-4,5,6,7-tetrahydrothieno[3,2-c]pyridin-2-yl)amino)-2-oxoethyl)-2-ethoxybenzamide], the EC50 in test [1], in test [2], in test [3] and in test [4] was 0.1 to 1 µM throughout.

Consider `CCOc1cc(CC(=O)Nc2sc3c(c2C#N)CN(Cc2cccc(F)c2)CC3)ccc1S(N)(=O)=O` [Example 21, N-(3-cyano-5-(3-fluorobenzyl)-4,5,6,7-tetrahydrothieno[3,2-c]pyridin-2-yl)-2-(3-ethoxy-4-sulfamoylphenyl)acetamide], for which the EC50 in test [1], in test [2], in test [3] and in test [4] was < 0.1 µM in each case.

On to `N#Cc1c(NC(=O)Cc2ccc(S(N)(=O)=O)s2)sc2c1CN(CC1CCCCC1)CC2` [Example 84, N-(3-cyano-5-(cyclohexylmethyl)-4,5,6,7-tetrahydrothieno[3,2-c]pyridin-2-yl)-2-(5-sulfamoylthiophen-2-yl)acetamide], for which the EC50 in test [1], in test [2], in test [3] and in test [4] was < 0.1 µM in each case.

For the compound `N#Cc1c(NC(=O)Cc2ccc(S(N)(=O)=O)cc2)sc2c1CCN(Cc1cccc(F)c1F)C2` [Example 106, N-(3-cyano-6-(2,3-difluorobenzyl)-4,5,6,7-tetrahydrothieno[2,3-c]pyridin-2-yl)-2-(4-sulfamoylphenyl)acetamide], the EC50 was 0.1 to 1 µM in test [1], < 0.1 µM in test [2], < 0.1 µM in test [3] and < 0.1 µM in test [4].
